Data: publication PMC9023544, “Ketone-selenoesters as potential anticancer and multidrug resistance modulation agents in 2D and 3D ovarian and breast cancer in vitro models” (Scientific Reports, 2022)

System: ABC superfamily genes in MCF-7/PAX
Experiment: Expression of genes encoding ABC transporters, qPCR
Format: cell-based, human
Experimental: Based on the fact that compounds K3, K4, K7 sensitized drug-resistant cell lines (HOC/ADR, MCF-7/PAX) and modulated ATPase activity of one from the ABC proteins (P-gp), we verified the potential of these compounds to affect ABC superfamily gene expression. The ovarian and breast cancer cell lines (parental cells and resistant sub-line) were analysed for the expression profile of genes encoding the ABC proteins in the previous works[18]–[20]. […] After 48 h, the effect of compounds alone or in the combination with cytostatics was observed (Supplementary Tables 1, Table 2).
To determine the impact of selected compounds on the expression of genes encoding ABC transporter, HOC/ADR and MCF-7/PAX cells were seeded for 24 h into 5 cm Petri dishes with DMEM medium at the cell density 1 × 10^5 cells/mL. Afterwards, the cells were washed 1× with PBS and new fresh DMEM supplemented with K3, K4, and K7 (in concentration corresponding to their IC10 value) alone or combined with cytostatics (Adriamycin or paclitaxel in concentration corresponding to their IC25 value) was added. In the experiment, positive and negative control was also included (positive—untreated cells, negative—cells treated only with cytostatics). After 48 h exposure, the cells were washed once with PBS and released from the surface by using the above-mentioned trypsin–EDTA procedure. The enzyme reaction was stopped by medium addition and the cells were centrifuged (3200×g; 10 min, 4 °C). The supernatants were removed and before the next centrifugation, the pellets were resuspended in 1.5 mL of cooled PBS (5400×g; 10 min, 4 °C). After the second washing step, the cells were centrifuged another time (10,000×g; 3 min, 4 °C). Subsequently, 1 mL of Trizol (Invitrogen) was added to the pellets and the compounds were stored − 80 °C.
The RNA concentration of selenoester treated samples was determined using QuantiT RiboGreen RNA Assay Kit and Infinite M200 plate reader (Tecan, Männedor, Switzerland). The cDNA was synthesized from 0.5 µg of total RNA by RevertAid First Strand Synthesis cDNA Kit (MBI Fermentas, Vilnius, Lithuania). To determine the quality of cDNA, the ubiquitin C gene fragment was amplified. The experiment was performed in 384-well block by using ViiA7 Real-Time PCR System (Life Technologies, Camarillo, California, United States). A master mix contained 0.25 µL of 20× TaqMan Gene Expression Assay, 1 µL of 5× HotFIREPol Probe qPCR Mix Plus, 1.75 µL of RNase free water and 2 µL of 8× diluted cDNA. The final reaction volume was 5 µL. The PCR parameters were as follows: initial hold (50 °C for 2 min), denaturation (95 °C for 10 min), followed by 45 cycles (denaturation at 95 °C for 15 s, annealing at 60 °C for 1 min). After each cycle, the fluorescent signal was determined. For each compound, duplicates were analysed and those with a standard deviation higher than 0.5 Ct were re-analysed. A quantitate real-time PCR was followed by MIQE guidelines. To compare the relative transcript levels of genes, the software REST 2009 (Qiagen, Hilden, Germany) was used.
Table 2. Effect of selenoesters either on the expression of the ABC gene superfamily in paclitaxel-resistant breast cancer cell line (MCF-7/PAX).
Gene expression of ABC transporters were estimated using comercial predesigned Taqman Gene Expression Assays (Life technologies). TaqMan Gene Expression Assays are based on 5´ nuclease chemistry, and each assay contains the primer and probe set for target of interest. Taqman assays IDs and GenBank Accession numbers of reference sequencies identifying their location and amplicon lengths are included in the Supplementary Table I. * Relative transcript levels (P-value ) in treated and non-treated cancer cell lines were compared using REST 2009 software.

CC(=O)C[Se]C(=O)c1ccc(Br)cc1 [K3]
number of ABC genes with altered expression: 30 | ABCA2 Expression Difference (IC10 alone, 48 h): 0.188 | ABCA2 Treated vs. Untr. (IC10 alone, 48 h): DOWN | ABCA3 Expression Difference (IC10 alone, 48 h): 0.481 | ABCA3 Treated vs. Untr. (IC10 alone, 48 h): DOWN | ABCA4 Expression Difference (IC10 alone, 48 h): 27.38 | ABCA5 Expression Difference (IC10 alone, 48 h): 0.559 | ABCA5 Treated vs. Untr. (IC10 alone, 48 h): DOWN | ABCA7 Expression Difference (IC10 alone, 48 h): 0.5100 | ABCA7 Treated vs. Untr. (IC10 alone, 48 h): DOWN | ABCA12 Expression Difference (IC10 alone, 48 h): 1.149 | ABCB1 Expression Difference (IC10 alone, 48 h): 0.401 | ABCB1 Treated vs. Untr. (IC10 alone, 48 h): DOWN | ABCB2 Expression Difference (IC10 alone, 48 h): 0.354 | ABCB2 Treated vs. Untr. (IC10 alone, 48 h): DOWN | ABCB3 Expression Difference (IC10 alone, 48 h): 0.235 | ABCB3 Treated vs. Untr. (IC10 alone, 48 h): DOWN | ABCB6 Expression Difference (IC10 alone, 48 h): 0.340 | ABCB6 Treated vs. Untr. (IC10 alone, 48 h): DOWN | ABCB7 Expression Difference (IC10 alone, 48 h): 0.143 | ABCB7 Treated vs. Untr. (IC10 alone, 48 h): DOWN | ABCB8 Expression Difference (IC10 alone, 48 h): 0.488 | ABCB8 Treated vs. Untr. (IC10 alone, 48 h): DOWN | ABCB9 Expression Difference (IC10 alone, 48 h): 0.422 | ABCB9 Treated vs. Untr. (IC10 alone, 48 h): DOWN | ABCB10 Expression Difference (IC10 alone, 48 h): 0.922 | ABCB10 Treated vs. Untr. (IC10 alone, 48 h): DOWN | ABCC1 Expression Difference (IC10 alone, 48 h): 0.272 | ABCC1 Treated vs. Untr. (IC10 alone, 48 h): DOWN | ABCC2 Expression Difference (IC10 alone, 48 h): 0.076 | ABCC2 Treated vs. Untr. (IC10 alone, 48 h): DOWN | ABCC3 Expression Difference (IC10 alone, 48 h): 15.79 | ABCC4 Expression Difference (IC10 alone, 48 h): 0.221 | ABCC4 Treated vs. Untr. (IC10 alone, 48 h): DOWN | ABCC5 Expression Difference (IC10 alone, 48 h): 1.010 | ABCC6 Expression Difference (IC10 alone, 48 h): 0.958 | ABCC6 Treated vs. Untr. (IC10 alone, 48 h): DOWN | ABCC8 Expression Difference (IC10 alone, 48 h): 0.648 | ABCC8 Treated vs. Untr. (IC10 alone, 48 h): DOWN | ABCC10 Expression Difference (IC10 alone, 48 h): 0.171 | ABCC10 Treated vs. Untr. (IC10 alone, 48 h): DOWN | ABCD1 Expression Difference (IC10 alone, 48 h): 0.123 | ABCD1 Treated vs. Untr. (IC10 alone, 48 h): DOWN | ABCD3 Expression Difference (IC10 alone, 48 h): 0.267 | ABCD3 Treated vs. Untr. (IC10 alone, 48 h): DOWN | ABCD4 Expression Difference (IC10 alone, 48 h): 0.971 | ABCE1 Expression Difference (IC10 alone, 48 h): 0.552 | ABCE1 Treated vs. Untr. (IC10 alone, 48 h): DOWN | ABCF1 Expression Difference (IC10 alone, 48 h): 2.388 | ABCF2 Expression Difference (IC10 alone, 48 h): 0.625 | ABCF2 Treated vs. Untr. (IC10 alone, 48 h): DOWN | ABCF3 Expression Difference (IC10 alone, 48 h): 0.487 | ABCF3 Treated vs. Untr. (IC10 alone, 48 h): DOWN | ABCG1 Expression Difference (IC10 alone, 48 h): 0.132 | ABCG1 Treated vs. Untr. (IC10 alone, 48 h): DOWN | ABCG2 Expression Difference (IC10 alone, 48 h): 0.250 | ABCG2 Treated vs. Untr. (IC10 alone, 48 h): DOWN | ABCG4 Expression Difference (IC10 alone, 48 h): 0.204 | ABCG4 Treated vs. Untr. (IC10 alone, 48 h): DOWN | decrease of expression of ABCB1 (P-gp) encoding gene (IC10 alone, 48 h): 60% | downregulation of expression of ABCC1 (MRP1) (IC10 alone, 48 h): 73% | downregulation of expression of ABCG2 (IC10 alone, 48 h): 75%
